Reference: paper PMC8175484, “Identification and function of ETH receptor networks in the silkworm Bombyx mori” (Scientific Reports, 2021)

Legend:
[1] = tested on: isolated CNS of pharate 5th instar larvae; assay: Electrophysiology: extracellular motor bursts recorded in nerves of abdominal ganglia of the isolated intact or desheathed CNS; set-up: species or system Bombyx mori; conditions: for ecdysis burst pattern, CCAP or MIPs applied alone: CCAP alone n = 4, MIP-I only or MIP-I-VII mixture n = 5; for time to burst patterns characteristic for pre-ecdysis I and II in dorsal and ventral nerves: isolated nerve cords
Protocol: Specific roles of various neuropeptides produced by the ETHR neurons were determined using electrophysiology technique in the isolated intact or desheathed CNS. Sharp forceps were used to remove the neurolema on the dorsal or ventral side of selected ganglia under physiological saline (see above) and dorsal or ventral nerves of the abdominal ganglia (AG1-7) were attached to plastic suction electrodes. A mixture or individual neuropeptides were then applied in a 300 μl saline bath and induced extracellular motor bursts were recorded using differential AC amplifier 1700 (A-M Systems, Carlsborg, WA, USA) and Axoscope program (Axon Instruments, Union City, CA, USA). Synthetic peptides used in the assay are listed in Supplementary Table S2 online. A mixture of MIPs was adjusted according to its copy number in the precursor: MIP-I (five copies), MIP-II,V (two copies), MIP-III,IV,VI,VII (one copy each)[28].

pharate larvae = assay: ETH injection into pharate larvae, ecdysis behavior; assay type: in vivo, Bombyx mori; conditions: pharate larvae injected with ETH at 8–15 h prior to ecdysis; fail to shed the old cuticle
Protocol: Under normal conditions, the ecdysis behavior lasts for ∼10 min and terminates immediately after the old cuticle is completely shed from the last abdominal segment. However, pharate larvae injected with ETH at 8–15 h prior to ecdysis fail to shed the old cuticle and show strong ecdysis contractions for 1–2 h. […] To determine a site of sensory input that terminates the ecdysis behavior, we peeled off a narrow ring of the old cuticle on abdominal segments 1, 3, 5 or 6 of late pharate 5th instar larvae 1–3 h prior to ecdysis. These larvae invariably initiated normal pre-ecdysis behaviors at the expected time and after ∼1 h switched to peristaltic waves of ecdysis contractions. […] In spite of presence of the old cuticle on the head, thorax and anterior abdomen, strong ecdysis contractions ceased immediately after the posterior cuticle was shed from the last abdominal segment in all larvae (n = 14).

ETHR-A (BNGR-A6-A) = assay: Aequorin-based calcium mobilization assay, ETHR-A transiently expressed in CHO-K1 cells; assay type: cell-based, Bombyx mori
Protocol: Pharmacological characterization of ETHR-A (BNGR-A6-A) and ETHR-B (BNGR-A6-B) receptors were carried out in the Chinese hamster ovary (CHO-K1) cells. For expression in CHO-K1 cells, the entire open reading frame for each ETHR was inserted into pcDNA3.1 ( +) vector (Invitrogen, Carlsbad, CA, USA) with a mammalian Kozak translation initiation sequence incorporated at 5´ end and confirmed by DNA sequencing prior to use. The primers used to clone BNGR-A6-A and BNGR-A6-B are listed in Supplementary Table S1 online. For the assay, each receptor was expressed together with the bioluminescent calcium-sensitive reporter aequorin and chimeric Gqs alpha subunit protein that couples receptor activation to the phospholipase C and intracellular Ca^2+ mobilization. […]
The procedures used for the receptor assays were described previously. […] Following cell application to a well, emitted luminescence corresponding to the ligand-induced intracellular Ca^2+ release was monitored in 0.5 s intervals for 20 s using the GloMax-Multi Detection System (Promega, Madison, WI, USA). […] All experiments were replicated three times and collected output data calculated and further analyzed in Excel (Microsoft, Redmond, WA, USA) and GraphPad Prism 6 software (GraphPad Software Inc.). The concentration-dependent response curves, as well as the corresponding EC50 values were calculated using the Prism software. […]

PFCNAFTGCa [CCAP, crustacean cardioactive peptide]
ecdysis burst pattern, CCAP or MIPs applied alone ([1]; desheathed CNS): less effective

GQSNNNRGRVLRCFFNAVTCF-OH [AST-CC, allatostatin CC, allatostatin CC of Bombyx mori]
time to onset of ecdysis bursts ([1]; desheathed CNS dissected 2–6 h prior to ecdysis, 0,3–1 μM, n = 14): 5 to 12 min | response (ecdysis motor pattern) of earlier pharate or feeding stages ([1]; desheathed CNS, 0,3–1 μM, n = 9): irresponsive

SNEAISPFDQGMMGYVIKTNKNIPRMa [ETH, ecdysis triggering hormone, ecdysis triggering hormone from B. mori, synthetic peptide]
duration of strong ecdysis contractions (pharate larvae): 1 to 2 h | time to initiation of clear ecdysis bursts after ETH ([1]; desheathed CNS activated by ETH, n = 10): 27 to 35 min | duration of pre-ecdysis before switch to ecdysis motor patterns (ecdysis activation) ([1]; isolated CNS of pharate larvae treated with ETH, dorsal nerves AG4-7): ~ 40 min | time to burst patterns characteristic for pre-ecdysis I and II in dorsal and ventral nerves ([1]; 0.3–1 μM, n = 14): 5 to 7 min

AWQDLNSAWa [MIP-I]
ecdysis burst pattern, CCAP or MIPs applied alone ([1]; desheathed CNS): weak prolonged synchronous bursts or no rhythmic pattern

SFIKPN.NVPRVa [PETH, pre-ecdysis triggering hormone, pre-ecdysis triggering hormone from B. mori, synthetic peptide]
EC50 (ETHR-A (BNGR-A6-A); CHO-K1 cells co-expressing aequorin and chimeric Gqs alpha subunit, luminescence as % of maximum peak, mean of n = 3, read-out: EC50, BomETHR-A): 9.43 nM | fold lower sensitivity of ETHR-A to PETH than to ETH (ETHR-A (BNGR-A6-A); from concentration-response curves in CHO cells): ~ 20 fold | time to burst patterns characteristic for pre-ecdysis I and II in dorsal and ventral nerves ([1]; 0.3–1 μM, n = 14): 5 to 7 min

NADLINSLLALPKDMNDAa [PDF, pigment dispersing factor, pigment dispersing factor of Bombyx mori]
time to onset of pre-ecdysis II bursts (asynchronous motoneuron activity) in ventral nerves of AG2-7 ([1]; desheathed CNS, 0.3–1 μM, n = 8): 3 to 5 min
